Results published in US6737383B1, “Herbicidal oxadiazolidines” (priority 1999, dated 2004).

Experiments:
crabgrass = assay: Test B pre/postemergence crabgrass; type: in vivo, Digitaria sanguinalis
Procedure, shortened: (§1)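 Test chemicals in a non-phytotoxic solvent mixture with surfactant were sprayed preemergence onto planted seeds and postemergence onto plants 2 to 18 cm tall (1- to 4-leaf stage). After twelve to sixteen days in a greenhouse, injury was visually rated against untreated controls from 0 (no effect) to 10 (complete control).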

giant foxtail = assay: Test B pre/postemergence giant foxtail; type: in vivo, Setaria faberii
Procedure, shortened: as §1

wheat = assay: Test B pre/postemergence wheat; type: in vivo, Triticum aestivum
Procedure, shortened: as §1

duck salad = assay: Test B flood test duck salad; type: in vivo, Heteranthera limosa
Procedure, shortened: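 Read-out is a visual response score from 0 (no effect) to 10 (complete control), assigned by comparison with untreated controls. Treatment was applied at the 2-leaf stage, and plants stayed in the greenhouse for twelve to sixteen days before scoring.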

winter wheat [1] = assay: Test E winter wheat; type: in vivo, Triticum aestivum; conditions: Postemergence
Procedure, shortened: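 Compounds formulated in non-phytotoxic solvent mixture with surfactant; for postemergence, sprayed on plants at 1- to 4-leaf stage grown in 60:40 sandy loam/greenhouse potting mix. Kept in greenhouse ~21 to 28 days, then visually rated against untreated controls.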

blackgrass = assay: Test E blackgrass; type: in vivo, Alopecurus myosuroides; conditions: Preemergence
green foxtail = assay: Test E green foxtail; type: in vivo, Setaria viridis; conditions: Preemergence
Italian ryegrass = assay: Test E Italian ryegrass; type: in vivo, Lolium multiflorum; conditions: Preemergence
winter wheat [2] = assay: Test E winter wheat; type: in vivo, Triticum aestivum; conditions: Preemergence
wild oat = assay: Test E wild oat; type: in vivo, Avena fatua; conditions: Preemergence
winter barley = assay: Test E winter barley; type: in vivo, Hordeum vulgare; conditions: Preemergence
[3] = Preemergence, Rate 62 g/ha, scale of 0 to 10 where 0 is no effect and 10 is complete control
[4] = Preemergence, Rate 250 g/ha, scale of 0 to 10 where 0 is no effect and 10 is complete control
[5] = Preemergence, Rate 500 g/ha, scale of 0 to 10 where 0 is no effect and 10 is complete control
[6] = Rate 62 g/ha, Postemergence, scale 0 to 10, 0 no effect, 10 complete control
[7] = Rate 125 g/ha, Postemergence, scale of 0 to 10 where 0 is no effect and 10 is complete control
[8] = Rate 125 g/ha, Preemergence, scale of 0 to 10 where 0 is no effect and 10 is complete control
[9] = Rate 250 g/ha, Postemergence, scale of 0 to 10 where 0 is no effect and 10 is complete control
[10] = Rate 500 g/ha, Postemergence, scale 0 to 10, 0 no effect, 10 complete control
[11] = Rate 125 g/ha, Pre-emergence, flood test species, scale 0 to 10 where 0 is no effect and 10 is complete control
[12] = Rate 250 g/ha, Pre-emergence, flood-test species, scale 0 to 10, 0 is no effect, 10 is complete control
[13] = Rate 500 g/ha, Pre-emergence, flood test species, scale 0 to 10 (0 no effect, 10 complete control)
[14] = Rate 1000 g/ha, 0 to 100 scale where 0 is no effect and 100 is complete control
[15] = Rate 500 g/ha, 0 to 100 scale, 0 is no effect, 100 is complete control
[16] = Rate 500 g/ha, 0 to 100 scale (0 no effect, 100 complete control)
[17] = Rate 1000 g/ha, 0 to 100 scale, 0 no effect, 100 complete control
[18] = Postemergence, Rate 125 g/ha, scale 0 to 10, 0 is no effect, 10 is complete control
[19] = Preemergence, Rate 62 g/ha, scale 0 to 10 (0 no effect, 10 complete control)
[20] = Rate 62 g/ha, Postemergence, scale of 0 to 10 where 0 is no effect and 10 is complete control

For `CC(C)N(C(=O)n1oc(=O)n(C2CCCC2)c1=O)c1ccc(Cl)cc1` [Compound 282], the “Crabgrass plant response rating” value (crabgrass; [3]) was 1, the “Crabgrass plant response rating” value (crabgrass; [4]) was 6 and the “Plant response rating, Crabgrass” value (crabgrass; [5]) was 8. For the same compound, the “Crabgrass plant response rating” value (crabgrass; [6]) was 0, the “Crabgrass plant response rating” value (crabgrass; [7]) was 0 and the “Crabgrass plant response rating” value (crabgrass; [8]) was 1. The “Plant response rating, Crabgrass” value (crabgrass; [9]) was 0, the “Crabgrass plant response rating” value (crabgrass; [10]) was 0 and the “Giant foxtail plant response rating” value (giant foxtail; [3]) was 8. For the same compound, the “Giant foxtail plant response rating” value (giant foxtail; [4]) was 10, the “Plant response rating, Giant foxtail” value (giant foxtail; [5]) was 10 and the “Giant foxtail plant response rating” value (giant foxtail; [6]) was 0. For the same compound, the “Giant foxtail plant response rating” value (giant foxtail; [7]) was 0, the “Giant foxtail plant response rating” value (giant foxtail; [8]) was 8 and the “Plant response rating, Giant foxtail” value (giant foxtail; [9]) was 0. The “Giant foxtail plant response rating” value (giant foxtail; [10]) was 2, the “Wheat plant response rating” value (wheat; [3]) was 0 and the “Wheat plant response rating” value (wheat; [4]) was 0. For the same compound, the “Plant response rating, Wheat” value (wheat; [5]) was 0, the “Wheat plant response rating” value (wheat; [6]) was 0 and the “Wheat plant response rating” value (wheat; [7]) was 0. The “Wheat plant response rating” value (wheat; [8]) was 0, the “Plant response rating, Wheat” value (wheat; [9]) was 0 and the “Wheat plant response rating” value (wheat; [10]) was 0. For the same compound, the “Ducksalad plant response rating” value (duck salad; Rate 62 g/ha, headed Pre-emergence (flood test species), scale 0 to 10 (0 no effect, 10 complete control)) was 0, the “Ducksalad plant response rating” value (duck salad; [11]) was 0 and the “Ducksalad plant response rating” value (duck salad; [12]) was 0. The “Ducksalad plant response rating” value (duck salad; [13]) was 0, the “Plant response rating, Wheat (winter)” value (winter wheat [1]; [14]) was 50 and the “Wheat (winter) plant response rating” value (winter wheat [1]; Rate 250 g/ha, 0 to 100 scale where 0 is no effect and 100 is complete control) was 20. For the same compound, the “Plant response rating, Wheat (winter)” value (winter wheat [1]; [15]) was 30, the “Blackgrass plant response rating (0 to 100 scale)” value (blackgrass; Rate 250 g/ha) was 60 and the “Plant response rating, Blackgrass” value (blackgrass; [16]) was 60. The “Plant response rating, Blackgrass” value (blackgrass; [17]) was 70, the “Green foxtail plant response rating (0 to 100 scale)” value (green foxtail; Rate 250 g/ha) was 80 and the “Plant response rating, Green foxtail” value (green foxtail; [16]) was 100. For the same compound, the “Plant response rating, Green foxtail” value (green foxtail; [17]) was 100, the “I. Ryegrass plant response rating (0 to 100 scale)” value (Italian ryegrass; Rate 250 g/ha) was 70 and the “Plant response rating, I. Ryegrass” value (Italian ryegrass; [16]) was 70. For the same compound, the “Plant response rating, I. Ryegrass” value (Italian ryegrass; [17]) was 70, the “Wheat (winter) plant response rating (0 to 100 scale)” value (winter wheat [2]; Rate 250 g/ha) was 60 and the “Plant response rating, Wheat (winter)” value (winter wheat [2]; [16]) was 60. For the same compound, the “Plant response rating, Wheat (winter)” value (winter wheat [2]; [17]) was 70, the “Wild oat plant response rating (0 to 100 scale)” value (wild oat; Rate 250 g/ha) was 70 and the “Plant response rating, Wild oat” value (wild oat; [16]) was 70. For the same compound, the “Plant response rating, Wild oat” value (wild oat; [17]) was 80, the “Barley (winter) plant response rating (0 to 100 scale)” value (winter barley; Rate 250 g/ha) was 50 and the “Plant response rating, Barley (winter)” value (winter barley; [16]) was 50. For the same compound, the “Plant response rating, Barley (winter)” value (winter barley; [17]) was 70.

For `CC(C)N(C(=O)n1oc(=O)n(C2CCCCCC2)c1=O)c1ccccc1` [Compound 341], the “Plant response rating, Crabgrass” value (crabgrass; [18]) was 0, the “Plant response rating, Crabgrass” value (crabgrass; [19]) was 2 and the “Crabgrass plant response rating (0 to 10 scale)” value (crabgrass; Preemergence, Rate 125 g/ha) was 2. For the same compound, the “Crabgrass plant response rating” value (crabgrass; [4]) was 2, the “Crabgrass plant response rating” value (crabgrass; [5]) was 8 and the “Crabgrass plant response rating” value (crabgrass; [20]) was 0. For the same compound, the “Plant response rating, Crabgrass” value (crabgrass; [10]) was 2, the “Plant response rating, Giant foxtail” value (giant foxtail; [18]) was 0 and the “Plant response rating, Giant foxtail” value (giant foxtail; [19]) was 9. The “Giant foxtail plant response rating (0 to 10 scale)” value (giant foxtail; Preemergence, Rate 125 g/ha) was 9, the “Giant foxtail plant response rating” value (giant foxtail; [4]) was 10 and the “Giant foxtail plant response rating” value (giant foxtail; [5]) was 10. For the same compound, the “Giant foxtail plant response rating” value (giant foxtail; [20]) was 0, the “Plant response rating, Giant foxtail” value (giant foxtail; [10]) was 2 and the “Plant response rating, Wheat” value (wheat; [18]) was 0. For the same compound, the “Plant response rating, Wheat” value (wheat; [19]) was 0, the “Wheat plant response rating (0 to 10 scale)” value (wheat; Preemergence, Rate 125 g/ha) was 0 and the “Wheat plant response rating” value (wheat; [4]) was 0. For the same compound, the “Wheat plant response rating” value (wheat; [5]) was 0, the “Wheat plant response rating” value (wheat; [20]) was 0 and the “Plant response rating, Wheat” value (wheat; [10]) was 0. For the same compound, the “Plant response rating, Ducksalad (0 to 10 scale, 0 is no effect, 10 is complete control)” value (duck salad; Rate 62 g/ha, flood test species, Pre-emergence, visual evaluation after twelve to sixteen days) was 0, the “Ducksalad plant response rating” value (duck salad; [11]) was 0 and the “Ducksalad plant response rating” value (duck salad; [12]) was 0. For the same compound, the “Ducksalad plant response rating” value (duck salad; [13]) was 3, the “Plant response rating, Wheat (winter)” value (winter wheat [1]; Rate 250 g/ha, 0 to 100 scale, 0 is no effect, 100 is complete control) was 70 and the “Plant response rating, Wheat (winter)” value (winter wheat [1]; [14]) was 65. For the same compound, the “Plant response rating, Wheat (winter)” value (winter wheat [1]; [15]) was 65, the “Plant response rating, Blackgrass” value (blackgrass; Rate 250 g/ha, 0 to 100 scale) was 40 and the “Plant response rating, Blackgrass” value (blackgrass; [16]) was 60. For the same compound, the “Plant response rating, Blackgrass” value (blackgrass; [17]) was 90, the “Plant response rating, Green foxtail” value (green foxtail; Rate 250 g/ha, 0 to 100 scale) was 25 and the “Plant response rating, Green foxtail” value (green foxtail; [16]) was 55. The “Plant response rating, Green foxtail” value (green foxtail; [17]) was 85, the “Plant response rating, I. Ryegrass” value (Italian ryegrass; Rate 250 g/ha, 0 to 100 scale) was 50 and the “Plant response rating, I. Ryegrass” value (Italian ryegrass; [16]) was 55. For the same compound, the “Plant response rating, I. Ryegrass” value (Italian ryegrass; [17]) was 55, the “Plant response rating, Wheat (winter)” value (winter wheat [2]; Rate 250 g/ha, 0 to 100 scale) was 40 and the “Plant response rating, Wheat (winter)” value (winter wheat [2]; [16]) was 50. The “Plant response rating, Wheat (winter)” value (winter wheat [2]; [17]) was 85, the “Plant response rating, Wild oat” value (wild oat; Rate 250 g/ha, 0 to 100 scale) was 60 and the “Plant response rating, Wild oat” value (wild oat; [16]) was 70. The “Plant response rating, Wild oat” value (wild oat; [17]) was 80, the “Plant response rating, Barley (winter)” value (winter barley; Rate 250 g/ha, 0 to 100 scale, 0 no effect, 100 complete control) was 70 and the “Plant response rating, Barley (winter)” value (winter barley; [16]) was 60. For the same compound, the “Plant response rating, Barley (winter)” value (winter barley; [17]) was 80.
